row,Structure (SMILES),melting point [°C]
1,O=C(Cl)c1cnc(O)c(Cl)c1,> 250
2,C#CCNC(=O)c1ncn2c1[C@@H]1CCCN1Cc1c(Cl)cccc1-2,233 to 235
3,c1cc(CCCn2ccnc2)cc(OCc2ccc3oc(-c4cccs4)nc3c2)c1,86 to 87
4,COc1cc([N+](=O)[O-])c2nccc(C)c2c1OCCCCCCCCc1ccccc1,39.5 to 41
5,COC(=O)C(=O)NC(=O)CC(F)=C(F)F,33 to 34
6,Cc1cc(C#N)cc(C(=O)NC(C)C2CC2)c1NC(=O)c1cc(Br)nn1-c1ncccc1Cl (centres undefined),244 to 245
7,NC(=O)c1ccc(-c2ccc3nnn(Cc4ccc5ncccc5c4)c3n2)cc1C(F)(F)F,230 to 232
8,COC(=O)c1cccc(SCc2c(O[C@H](Cn3ccnc3)c3ccccc3)ccc3c2CCCC3=O)c1,65
9,COC(=O)c1ccc(C(=O)N[C@@H](CC(C)C)C(=O)N[C@@H](C(C)C)[C@@H](O)c2c(-c3ccccc3)c2=O)cc1,125 to 128
10,OC(CCN1CC=C(c2ccc(Cl)cc2)CC1)c1ccc(Cl)cc1 (centres undefined),154 to 155
11,CCOC(=O)C(=CNC1CC1)C(=O)c1cc(Cl)c(F)c(Cl)c1F,71 to 74
12,COCC(=O)c1ccc(Br)nc1,110 to 112
13,NC(=O)N1CCC(Br)C1=O (centres undefined),128 to 129
14,CC(C)(CNC(=O)CN1CCCC1=O)N1CCCCC1,69
15,OCCCc1cn(-c2ccc(C(F)(F)F)cn2)nc1-c1ccccc1,99 to 100
16,CCc1nc2c(N)nc(C)c(C)c2n1CCOCCNC(=O)C1CCCCC1,170 to 172
17,O=C(NNc1ccc(Cl)cc1)c1cnc2ccc(I)cc2c1O,250 to 252
18,O=C1N(Cc2ccco2)Cc2cnc(Nc3ccccc3)nc2N1c1cccc(CCO)c1,195
19,CC(=O)C1CCC2C3CC=C4CC(F)CCC4(C)C3CCC12C (centres undefined),166 to 167
20,CCC(O)(c1ccc(OCCN2CCOCC2)cc1)c1cccc(C(F)(F)F)c1 (centres undefined),73 to 74
21,Cc1ncc2n1-c1ccc(Cl)cc1C(c1ccccc1F)N(O)C2 (centres undefined),246 to 248
22,CCCN(CCC)C(=O)Cc1ccccc1Nc1c(Cl)cccc1Cl,84 to 86

row,Structure (SMILES),melting point [°C]
1,Ic1ccc2c(c1)C(c1ccccc1)=NCc1nnc(Cc3ccccc3)n1-2,200 to 201
2,O=C(O)c1cc(Cl)cc2c1OCCO2,180
3,C=CCNc1nc(NCCCCCCC)c2scc(C)c2n1,56 to 57
4,CCOC(=O)C(=CNc1cnsn1)C(=O)c1cc(F)c(F)cc1F,117 to 118
5,CCc1ccc(C(CC(=O)O)C(=O)O)s1 (centres undefined),165 to 166
6,OCCCN1CCN(C2=Nc3ccccc3Cn3c2cc2ccccc23)CC1,174 to 175
7,C[C@H](C#Cc1ccc(Cc2cc3ccccc3s2)s1)N(O)C(N)=O,157 to 159
8,CCCNc1nc(=O)n(C2CC(N=[N+]=[N-])C(COC(C)=O)O2)cc1C (centres undefined),138 to 140
9,CC(CCl)CCCC(C)C1CCC2C3=CC=C4C(C)(C)C(O[Si](C)(C)C(C)(C)C)CCC4(C)C3CCC21C (centres undefined),114 to 116
10,CCOC(=O)Cn1c(C(=O)OCC)c(O)c(O)c1C(=O)OCC,121 to 122
11,Cc1cc(F)ccc1C(=O)CCCN1CCC2(CC1)C(=O)NCN2c1ccccc1,180 to 182
12,O=C1C[C@@H]2[C@@H](/C=C/[C@@H](O)COc3cccc(Cl)c3)[C@H](OC(=O)c3ccccc3)C[C@@H]2O1,101 to 102
13,O=C(CCCCCl)NC1CCCCC1,70 to 71
14,Cc1c(Cl)nnc(Cl)c1C(C)(C)CCl,56 to 58
15,OCC(O)COc1ccc(Br)cc1 (centres undefined),69 to 75
16,Cc1cc(CC2(Cc3cc(C)nc(Cl)c3)c3ccccc3-c3ncccc32)cc(Cl)n1,159 to 160
17,O=C(N[C@H]1CC[C@H](CCN2CCC(c3cccc4c3CCO4)CC2)CC1)c1ccc(-n2cccc2)cc1,228
18,C/C(=N\OCCN1CCOCC1)[C@H]1CC[C@H]2[C@@H]3CCC4=CC(=O)CC[C@]4(C)[C@H]3CC[C@]12C,107 to 108
19,CCCCN(CCCC)c1ccc(C2(c3cc(Nc4ccccc4)ccc3OC)OC(=O)c3ccccc32)c(O)c1 (centres undefined),148 to 152
20,O=c1c2ncn(C3OC(COC(c4ccccc4)(c4ccccc4)c4ccccc4)C(O)C3O)c2ncn1Cc1ccccc1 (centres undefined),208 to 209
21,CCCCCCCC1=CC(=O)NC1(O)CN (centres undefined),176
22,O=[N+]([O-])c1cc2c(c([N+](=O)[O-])c1)CCCC2,93

# The next lines start with the values.
row,melting point [°C],Structure (SMILES)
1,275 to 280,Nc1ccc2c(=O)n3c(nc2c1)C(=Cc1ccccc1Cl)CC3
2,47 to 48,C=CCCC1C=CCC2=C1C(=O)C1=C(CCCC1)C2=O (centres undefined)
3,78 to 81,CC(C#N)c1ccc(O)c([N+](=O)[O-])c1 (centres undefined)
4,129 to 131,CC(C)CCCC(C)C1CC=C2C3=C(CCC21C)C1(C)CCC(C(=O)c2ccncc2)CC1CC3 (centres undefined)
5,206 to 207,O=C1NCCN1CCNc1cc(-c2ccncc2)c(-c2ccccc2)nn1
6,148 to 150,CS(=O)(=O)N1CCC(C(=O)N(CCCN2CCC(Cc3ccc(F)cc3)CC2)c2ccc(Cl)c(Cl)c2)CC1
7,150 to 152,O=C1C2CC(c3ccc([N+](=O)[O-])cc3)(C2)C(=O)N1Cc1ccccc1
8,172,CC(=O)OCC(=O)C1(OC(=O)CC(C)C)CCC2C3CC(C)C4=CC(=O)C=CC4(C)C3C(O)CC21C (centres undefined)
9,309 to 311,CC(=O)Nc1cccc(C(c2cccc(NC(C)=O)c2)(C(F)(F)F)C(F)(F)F)c1
10,154 to 156,O=C(OCC1CC(O)C(n2cc(F)c(=O)[nH]c2=O)O1)c1ccccc1 (centres undefined)
11,90 to 92,O=C1C2CCCCC2C(=O)N1c1ccc(Br)cc1F (centres undefined)
12,89 to 90,CCOC(=O)COc1ccc2cnn(C[C@H](C)NC(=O)OCc3ccccc3)c2c1Br
13,119,COc1ccc(CN(C)CCc2ccc(NC(=O)c3cccc4c(=O)c5cccc(C)c5[nH]c34)cc2)cc1OC
14,259 to 262,NC(=O)c1cc2ccc(F)cc2nc1N
15,90,Cn1c(SCCCN2CCc3ccc(NS(C)(=O)=O)cc3C2)nnc1-c1ccccc1
16,134 to 136,CS(=O)(=O)c1ccc(-c2cnn(Cc3ccccc3)c(=O)c2-c2ccc(F)c(Cl)c2)cc1
17,198,Oc1cc(-c2ccc(Cl)cc2Cl)n[nH]1
18,192 to 195,COc1c(C(C)(C)C)cc(C(=O)O)cc1C(C)(C)C
19,218 to 221,CCN1N=C(c2ccc(F)cc2)c2cc(Cl)c(Cl)cc2CS1(=O)=O
20,100 to 102,CCCN(CCC)c1nc2c(c(-c3c(C)cc(C)cc3C)cn2C)c(=O)n1C
21,299 to 302,O=C1NC(=O)c2c1cc1ccc3c(c1c2-c1ccncc1)OCO3
22,203 to 204,Cc1ccc(N2CN(C(C)(C)C)C3=NN=CC3=C2N)cc1
23,182 to 185,CC(=O)NC[C@H]1CN(c2ccc(N3CCC(n4ncn(C)c4=S)CC3)c(F)c2)C(=O)O1
24,155 to 160,Cc1nc2ccc(C(=O)NS(=O)(=O)c3ccccc3)nc2n1Cc1ccc(C(=O)O)cc1Cl
25,145 to 147,Cc1c(C)c(N2CCN(c3ncccn3)CC2)c(C)c2c1OC(C)(C)C2
26,138 to 139,CNc1[nH]c(-c2ccccc2)c(C)c1C#N
27,50,CC(C)(C)C(=O)C(Oc1ccc(Cl)cc1)c1cccnc1 (centres undefined)
28,208 to 210,CN1C(=O)C(C)(C)C(=O)Nc2cc(C=O)ccc21

row,melting point [°C],Structure (SMILES)
1,135 to 136,CSc1sc(C(=O)N(C)C)c2c1C(=O)CC(C)(C)C2
2,102 to 103,Cc1nn(CCBr)c(=O)c2ccccc12
3,143 to 144,C/C(=N\OCCOc1ccc(C(=O)O)c(Cl)c1)c1ccc(C(C)(C)C)cc1
4,119,CCCOc1cc(-n2c(=O)cc(C(F)(F)F)n(C)c2=O)c(F)cc1Br
5,73 to 74.5,CC(C)(C)OC(=O)Oc1ccc([N+](=O)[O-])cc1
6,> 250,O=C(O)C1=CSC2C(=CC3=CN4CCCCCC4N3)C(=O)N12 (centres undefined)
7,81,CCC1CC(=O)N(Cc2ccc(NS(C)(=O)=O)cc2)N=C1c1ccc(OC)c(OC)c1 (centres undefined)
8,136 to 138,CN(C)CCC(=O)c1c(-c2ccccc2)[nH]c2ccccc12
9,174 to 176,COC(=O)COc1ccc2cc(CNC(=O)c3cnn(-c4ccc(Cl)cc4)c3C(F)(F)F)ccc2c1
10,337 to 338,COc1ccc(CNc2nc(Cl)cc(Cn3c(C(=O)c4cc(C)cc(C#N)c4)c(C(C)C)c(=O)[nH]c3=O)n2)cc1
11,124 to 126,CCOC(=O)c1cc2c(Cl)c(OC)c(OC)cc2s1
12,95 to 96,COc1ccc(COc2c(C)c(C)c3c(c2C)C(c2ccc(C(C)C)cc2)C(C)(C)O3)cc1 (centres undefined)
13,186,CC(=O)N1CCN(c2cccc(O)c2)CC1
14,221 to 223,Cc1cc(C)c(Nc2nc(C)ncc2S(=O)(=O)c2ccc(N3CCOCC3)cc2)c(C)c1
15,62 to 64,COc1cccc2c1C(C)(C)c1ccccc1C2
16,106 to 108,COC(=O)CCc1cc2cc(C(F)(F)F)ccc2n1S(=O)(=O)c1cccc2nc(C)sc12
17,211 to 213,Oc1ccc2c(c1)CCNC21CCSCC1
18,152 to 154,Cn1nc(-c2cc(C(C)(C)C)c(O)c(C(C)(C)C)c2)c2cccnc21
19,220 to 222,Cc1ccccc1C(=O)Nc1ccc(C(=O)N2CCCC(OCC(=O)O)c3cc(Cl)ccc32)cn1 (centres undefined)
20,132,COCCOc1ccc(/C=C/C(=O)O)c(Oc2ncc(C(F)(F)F)cc2Cl)c1
21,192,Cc1ccccc1Oc1ccc2ccc(N)nc2n1
22,180 to 183,COC(=O)C1=Cc2cc(-c3ccc(F)cc3)ccc2S(=O)(=O)CC1
23,87,COC(=O)c1cc2cccc(C=O)c2[nH]1
24,141 to 143,C=CCCONC(=O)c1nc(-c2ccc(Cl)c(OC)c2F)cc(N)c1Cl
25,150 to 151,O=Cc1c2n(c3ccncc13)CCC2
26,178 to 179,N#CCCc1ccnc(-c2nc(=O)c3ccccc3s2)c1
27,114,CC(C)c1cc2c(cc1C(CC(=O)O)c1ccccc1)OCO2 (centres undefined)

# — a melting point compilation (Tetko et al.; mined from patent text by program, amines drawn as free bases though some values may be those of a salt)
